Reference: PubChem BioAssay AID2060506 (Molecular Pharmacology Branch, DTP, NCI, 2025)

Tested on: 598228-144-R-J1-PDC complex spheroid viability
Assay: Anticancer human tumor 598228-144-R-J1-PDC patient-derived serous endometrial adenocarcinoma cell line growth inhibition [GQUAD]
Conditions: for IC50: curve of first compound; for viability, T/C: stronger effect = lower value
How it was run: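 Tumor cells were grown as complex spheroids with HUVEC endothelial cells and mesenchymal stem cells as stroma. G-quadruplex stabilizers were combined with targeted agents over half-log dilutions from near the clinical Cmax, or from 10 microM.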
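Further: spheroids exposed to the agents for one week before reading.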
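Wherever viability, T/C is given: percent of vehicle DMSO control viability so 100% = untreated growth.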

For `COc1cc(C2c3cc4c(cc3C(OC3OC5COC(C)OC5C(O)C3O)C3COC(=O)C23)OCO4)cc(OC)c1O` (configuration not stated) + Cc1cnc(CNC(=O)c2c(=O)c3ccc(N4CCCN(C)CC4)nc3n3c2sc2ccccc23)cn1, the IC50 (second compound 0.0316 µM) was 8.68 µM, the IC50 (second compound 0.1 µM) was > 10 µM and the IC50 (second compound 0.316 µM) was > 10 µM. For the same compound, the IC50 (second compound 1 µM) was > 10 µM, the IC50 (second compound 3.16 µM) was 3.43 µM and the IC50 (second compound 10 µM) was 0.765 µM. It also gave a viability, T/C (second compound 0.0316 µM, first compound 0.0316 µM) of 79.7%, a viability, T/C (second compound 0.0316 µM, first compound 0.1 µM) of 85.8% and a viability, T/C (second compound 0.0316 µM, first compound 0.316 µM) of 88.4%. The viability, T/C (second compound 0.0316 µM, first compound 1 µM) was 58.6%, the viability, T/C (second compound 0.0316 µM, first compound 3.16 µM) was 79.8% and the viability, T/C (second compound 0.0316 µM, first compound 10 µM) was 46.1%. It also gave a viability, T/C (second compound 0.1 µM, first compound 0.0316 µM) of 89.4%, a viability, T/C (second compound 0.1 µM, first compound 0.1 µM) of 60.1% and a viability, T/C (second compound 0.1 µM, first compound 0.316 µM) of 54.8%. For the same compound, the viability, T/C (second compound 0.1 µM, first compound 1 µM) was 66.4%, the viability, T/C (second compound 0.1 µM, first compound 3.16 µM) was 55.1% and the viability, T/C (second compound 0.1 µM, first compound 10 µM) was 44.4%. For the same compound, the viability, T/C (second compound 0.316 µM, first compound 0.0316 µM) was 87.8%, the viability, T/C (second compound 0.316 µM, first compound 0.1 µM) was 62% and the viability, T/C (second compound 0.316 µM, first compound 0.316 µM) was 64.2%. The viability, T/C (second compound 0.316 µM, first compound 1 µM) was 72.1%, the viability, T/C (second compound 0.316 µM, first compound 3.16 µM) was 67% and the viability, T/C (second compound 0.316 µM, first compound 10 µM) was 47.8%. For the same compound, the viability, T/C (second compound 1 µM, first compound 0.0316 µM) was 64.2%, the viability, T/C (second compound 1 µM, first compound 0.1 µM) was 69.9% and the viability, T/C (second compound 1 µM, first compound 0.316 µM) was 74.7%. For the same compound, the viability, T/C (second compound 1 µM, first compound 1 µM) was 72%, the viability, T/C (second compound 1 µM, first compound 3.16 µM) was 71.9% and the viability, T/C (second compound 1 µM, first compound 10 µM) was 46.9%. The viability, T/C (second compound 3.16 µM, first compound 0.0316 µM) was 64.6%, the viability, T/C (second compound 3.16 µM, first compound 0.1 µM) was 70.7% and the viability, T/C (second compound 3.16 µM, first compound 0.316 µM) was 73.3%. It also gave a viability, T/C (second compound 3.16 µM, first compound 1 µM) of 61.7%, a viability, T/C (second compound 3.16 µM, first compound 3.16 µM) of 51.8% and a viability, T/C (second compound 3.16 µM, first compound 10 µM) of 35%. The viability, T/C (second compound 10 µM, first compound 0.0316 µM) was 57.6%, the viability, T/C (second compound 10 µM, first compound 0.1 µM) was 45.2% and the viability, T/C (second compound 10 µM, first compound 0.316 µM) was 52.1%. The viability, T/C (second compound 10 µM, first compound 1 µM) was 47.5%, the viability, T/C (second compound 10 µM, first compound 3.16 µM) was 43.2% and the viability, T/C (second compound 10 µM, first compound 10 µM) was 9.83%.
